Experiments:
[1] = Accelerated oxidation, Rancimat test of Polysorbate 80 coating on silica; assay type: physicochemical
Protocol: Solid silica particles (LuctaCarrier™ silica, Lucta, S. A., Barcelona, Spain) are coated 50% wt/wt (based of the combined weight of the particles and coating) with a mixture of polyethylene 20 sorbitan monooleate (Polysorbate 80) and an amount of the antioxidants set forth in the tables, below, or no antioxidant as a control. The solid antioxidants (e.g., BHA or BHT) are dissolved in a suitable solvent (e.g., ethyl alcohol) and then mixed with the Polysorbate 80 at the listed concentration levels. The oxidative stability of the coating is then determined using the Rancimat test. Oxidative stability relates to how easily components of oil oxidize which creates off-flavors in the oil, and is measured by instrumental analysis using accelerated oxidation methods. American Oil Chemists' Society Official Method Cd 12-57 for Fat Stability: Active Oxygen Method (re'vd 1989); Rancimat (Laubli, M. W. and Bruttel, P. A., JOACS 63:792-795 (1986)); Joyner, N. T. and J. E. McIntyre, Oil and Soap (1938) 15:184 (modification of the Schaal oven test). The Rancimat method has been developed as the automated version of the AOM method (active oxygen method) for the determination of the induction time of fats and oils. In this method the highly volatile organic acids produced by autoxidation are absorbed in water and used to indicate the induction time. As used in the following tables, the abbreviations have the following meanings: […]

[2] = Shelf life test, sensory panel rancidity score at 40° C.; assay type: physicochemical; details: 1000 ppm
Protocol: The nonionic surfactant polyoxyethylene 20 sorbitan monooleate (Polysorbate 80) is coated in an amount of 50% wt/wt onto silica particles (i.e., in the proportion 50 g. of Polysorbate 80 per 50 g. of silica), either without (control) or with added antioxidant. A shelf life test is performed by measuring, using a sensory panel, the level of rancid odor of samples stored at 40° C., with a rancidity score being assigned to each sample (with a score of 0 for no rancid odors and 10 for highest level of rancid odors. The results are shown in Table 13, below.

[3] = test system: rumen microbial proteinases; assay: Protease activity of mixed rumen microbial cell enzyme source (casein substrate); assay type: biochemical, cows
Protocol: Two rumen-fistulated, nonlactating cows averaging 623±12.5 kg in weight were fed 5 kg dry matter (DM) of low quality timothy hay twice daily. About 2.5L of rumen fluid was collected through the fistula 4 hrs after the morning feeding at 07:00 hrs. Bulk feed particles were removed by sieving the fluid through a 0.5 mm strain. The fluid was then composited and then stored in a prewarmed (37° C.) thermal container.
A microbial powder was prepared using the acetone-butanol extraction procedure outlined by Mahadevan et al., “Preparation of protease from mixed rumen microorganisms and its use for the in vitro determination of true protein in feedstuffs,” Can. J. Anim. Sci. 67:55 (1987). About 500 g of this powder was prepared and stored at −20° C. Extraction of the proteases was accomplished by stirring 250 g of the powder with 1L of 4° C. cold water (for 1 hr) and then proceeding along Mahadevan's extraction procedure. Only extracts from the filtration with an XM-300 Amicon Filter, (approx. 300 000 molecular weight cutoff—under nitrogen gas), were made, washed twice with distilled water and the retentate freeze dried. This was referred to as the mixed microbial cell enzyme source. It was used in the protein adhesion tests and also in the parallel thiol and protease activity determinations.
Ten grams of the mixed microbial cell enzyme was dissolved in 100 ml warm (37° C.) 0.1 M phosphate buffer, pH 6.8, and used as an enzyme inoculant. The assay matrix consisted of 1 ml enzyme source, 1 ml 2% casein solution, 1 ml 01 M phosphate buffer and 1 ml of either the relevant level of surfactant or an equivalent amount of buffer. Ten levels of the two surfactants, polyoxyethylene sorbitan monoleate (Tween 80) and polyoxyethylene sorbitan monastearate (Tween 60) were tested, viz 0, 0.08, 0.16, 0.24, 0.32, 0.4, 0.8, 1.2, 1.6, and, 2.0% surfactant in the assay mixture.
The protease activity incubations were performed in 50 ml plastic centrifuge tubes, at 37° C. and under a stream of carbon dioxide gas. After 1.5 hr, 1 ml of the assay mixture was removed for the determination of thiols (SH) and disulfides (SS) (Sasago et al., “Determination of sulfhydryl and disulfide groups in milk by p-chloromercuribenzoate-diathizone method,” J. Dairy Sci. 46:1348-1351 (1963)). At the end of 2 hr incubation, the reaction was stopped with 1 ml of 15% TCA (trichloroacetic acid) solution, cooled to 4° C. under an icebath, and centrifuged at 10,000 for 10 min. The free amino acids in the supernatant were assayed using the ninhydrin method (Rosen, “a Modified Colorimetric Analysis For Amino Acids,” Arch. Biochim. Biophys. 67:10 (1957)). The optimal surfactant inclusion level was calculated by direct linear plots on the assumption that the Michaellis-Menten equation applied.

[4] = Griffin et al., 1972; cited from earlier work
rumen cellulase activity = assay: In vitro cellulose degradation by rumen bacterial inoculum; assay type: biochemical, cows; details: 0.25% surfactant in reaction mixture; regression on initial 24 hr
Protocol: A bacterial fraction, largely free of protozoa, was prepared for the fermentation assays by using the procedure of Forsberg, “Some Effects of Arsenic on the Rumen Microflora; An In Vitro Study,” Can. J. Microbiol. 24:36 (1978). The digesta inoculum was resuspended and washed twice in an equivalent amount of 0.1 M phosphate buffer pH 6.8 to the rumen fluid. The inoculum provided both, the substrate and the enzyme used for cellulose degradation assay. Incubation periods were 0, 1.5, 3, 6, 12, 24, and 48 hr. Other incubation conditions were similar to those outlined in experiment 1 above. However, cellulose was determined by the method of Updergraff, supra, for the in vivo digestibility trial. The optimal level of Tween 80 obtained was adopted here and followed.

[5] = direct linear plots, Michaelis-Menten assumed

For `Cc1cc(C(C)(C)C)c(O)c(C(C)(C)C)c1` [BHT, butylated hydroxytoluene], the “Rancimat Stability” value ([1]; Table 7, 200 ppm in Polysorbate 80 coating on silica) was 1.75 h, the “Rancimat Stability” value ([1]; Table 8, 200 ppm) was 1.85 h and the “Rancimat Stability” value ([1]; Table 9, 200 ppm) was 4.45 h. For the same molecule, the “Rancimat Stability” value ([1]; Table 10, 200 ppm) was 6.15 h.
For `CCOc1ccc2c(c1)C(C)=CC(C)(C)N2` [EQ, ethoxyquin], the “Rancidity Score” value ([2]; 1 week, score 0 (no rancid odors) to 10) was 1.0, the “Rancidity Score” value ([2]; 2 weeks) was 2.0 and the “Rancidity Score” value ([2]; 6 weeks) was 3.5. The “Rancidity Score” value ([2]; 10 weeks) was 5.0.
For “polyoxyethylene sorbitan monastearate [Tween 60]”, the “Initial rate of proteinase activation” value ([3]; control=0) was 98.04%, the “Km (additive conc.), proteinase activation” value [3, 5] was 0.28 ± 0.02a % and the “Vmax (maximum proteinase activation)” value [3, 5] was 99.2 ± 2.7a %/unit additive conc. The “HLB (hydrophile-lipophile balance)” value [4] was 14.9 and the “Initial rate of cellulose degradation” value (rumen cellulase activity) was 0.87b (0.28) μg/ml/hr.
